Laboratory results published in patent publication US9278083B2, “Methods for purifying trans-(−)-Δ9-tetrahydrocannabinol and trans-(+)-Δ9-tetrahydrocannabinol” (SVC Pharma LP, priority 2004, dated 2016).

Assay: Storage stability of crystalline (±)-Δ^9-THC at 25° C.

CCCCCc1cc(O)c2c(c1)OC(C)(C)[C@@H]1CCC(C)=C[C@@H]21 (racemic) [crystalline (±)-Δ^9-THC, (±)-Δ^9-THC]
Stability on storage (off-white crystals of Example 17, at 25° C. in the presence of air and laboratory lighting): stable
Appearance (colour) on storage (white crystalline solid of Example 15, after at least three days at 25° C.): remained white
